# Laboratory results taken from PMC9413219 (Journal of Agricultural and Food Chemistry, 2022).
# System: rumen inoculum from fistulated cows
# Assay: In vitro batch culture incubation of a Senecio PA mixture with rumen inoculum
# Type: in vitro ADME
# Conditions: incubation with rumen inoculum up to 20 h
row,SMILES,degradation rate in rumen incubation (half-life ranking)
1,C/C=C1/C[C@@H](C)[C@@](C)(O)C(=O)OC/C2=C/CN(C)CC[C@@H](OC1=O)C2=O [senkirkine],slower degradation rates
2,C=C1C/C(=C/C)C(=O)O[C@@H]2CCN3CC=C(COC(=O)[C@]1(C)O)[C@H]23 [seneciphylline],fastest degradation
3,C/C=C1/C[C@@H](C)[C@@](C)(O)C(=O)OCC2=CCN3CC[C@@H](OC1=O)[C@@H]23 [senecionine],fastest degradation
4,C/C=C1/C[C@@]2(CO)O[C@@]2(C)C(=O)OCC2=CCN3CC[C@@H](OC1=O)[C@@H]23 [erucifoline],ranged in the middle
